Drawing on patent US8680159B2, “Bradykinin 1 receptor modulating compounds” (Gruenenthal GmbH, priority 2010, dated 2014), this text covers inhibition for 20 molecules.

Each structure is given as a SMILES string. Where two headings read alike, the source gives them in different places.

Assay [1] deals with T1, human B1R receptor (CHO K1 cells stably transfected with the human B1R gene) (Homo sapiens, UniProt P46663).
T1 construct: expressed in transfected cells; host or cells: CHO K1 cells (Chinese hamster ovary), stably transfected
T1 sequence (P46663 1-353): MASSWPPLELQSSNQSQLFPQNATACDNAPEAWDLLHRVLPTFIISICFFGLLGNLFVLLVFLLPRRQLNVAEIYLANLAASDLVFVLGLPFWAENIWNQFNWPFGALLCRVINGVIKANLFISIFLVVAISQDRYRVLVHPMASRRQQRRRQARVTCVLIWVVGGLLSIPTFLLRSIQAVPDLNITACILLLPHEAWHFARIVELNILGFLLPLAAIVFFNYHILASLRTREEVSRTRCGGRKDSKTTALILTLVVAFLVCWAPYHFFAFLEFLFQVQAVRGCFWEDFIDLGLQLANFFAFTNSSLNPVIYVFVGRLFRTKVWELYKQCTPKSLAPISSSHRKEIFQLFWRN
As to the kind of experiment: Functional study on the bradykinin receptor 1 (B1R), Ca2+ fluorescence (Fluo-4) FLIPR/Novostar assay, hB1R cells. The class given is cell-based. In outline:
(§1)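 Ca2+ influx (Fluo-4, peak fluorescence, λex 488/λem 540 nm) was measured in CHO K1 lines expressing rat or human B1R. After a 10 μM test-compound pre-addition scoring % activation, cells received EC80 agonist: Des-Arg9-bradykinin for rat, Lys-Des-Arg9-bradykinin for human. Antagonism was expressed as % of maximum inhibition, with IC50 from varied concentrations.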

Assay [2] has as its target T2, B1R receptor of the rat (CHO K1 cells stably transfected with the B1R gene of the rat) (Rattus norvegicus, UniProt P97583).
T2 construct: expressed in transfected cells; host or cells: CHO K1 cells (Chinese hamster ovary), stably transfected
T2 sequence (P97583 1-337): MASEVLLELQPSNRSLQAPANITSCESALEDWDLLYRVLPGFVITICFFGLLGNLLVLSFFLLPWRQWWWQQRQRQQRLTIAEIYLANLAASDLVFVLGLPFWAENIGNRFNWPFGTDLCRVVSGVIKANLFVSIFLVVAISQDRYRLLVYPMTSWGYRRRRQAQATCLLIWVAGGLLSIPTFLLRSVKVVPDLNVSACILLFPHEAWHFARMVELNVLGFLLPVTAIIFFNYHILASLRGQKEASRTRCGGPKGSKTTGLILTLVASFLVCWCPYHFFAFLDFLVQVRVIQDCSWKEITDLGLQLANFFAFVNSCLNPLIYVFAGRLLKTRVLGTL
As to the kind of experiment: Functional study on the bradykinin receptor 1 (B1R), Ca2+ fluorescence (Fluo-4) FLIPR/Novostar assay, rB1R cells. The class given is cell-based. The following applies: CHO-K1, 10 μM. The method in brief: as §1

[3] abbreviates: CHO-K1, read-out: % inhibition (human B1R) at 10 μM.
[4] abbreviates: read-out: % inhibition (rat B1R) at 10 μM.
[5] abbreviates: CHO-K1, read-out: % Inhibition (h-B1R) at 10 μM.
Where [6] appears, read: read-out: % Inhibition (r-B1R) at 10 μM.

As usually defined, the inhibition is the drop in the measured response relative to a control, in per cent. `CN(C(=O)c1ccc2c(c1)[C@H](NC(=O)C1CCC1)CC2)C1CCN(c2ccncc2)CC1` [Example H-18, (3R)-3-(Cyclobutanecarbonylamino)-N-methyl-N-(1-pyridin-4-yl-piperidin-4-yl)-2,3-dihydro-1H-indene-5-carboxylic acid amide]: the inhibition at 10 µM in assay [1] (setting [3]) amounted to 100%; in assay [2] (setting [4]), 102%.

Turning to `CC(C)CC(=O)N[C@@H]1CCc2cc(C(=O)N(C)C3CCN(c4ccncc4)CC3)ccc21` [Example H-34, (1R)-N-Methyl-1-(3-methyl-butanoylamino)-N-(1-pyridin-4-yl-piperidin-4-yl)-2,3-dihydro-1H-indene-5-carboxylic acid amide], the values for the inhibition at 10 µM in assay [1] (setting [3]) and in assay [2] (setting [4]) were 64% and 7%, respectively.

For `CN(CC1CCN(c2ccncc2)CC1)C(=O)c1ccc2c(c1)[C@H](NC(=O)c1ccccc1Cl)CC2` [Example H-64, (3R)-3-[(2-Chloro-benzoyl)amino]-N-methyl-N-[(1-pyridin-4-yl-piperidin-4-yl)-methyl]-2,3-dihydro-1H-indene-5-carboxylic acid amide], the inhibition at 10 µM in assay [1] (setting [3]) worked out at 96%; in assay [2] (setting [4]) it was 97%.

For the molecule `CN(C(=O)c1ccc2c(c1)[C@H](NC(=O)c1cncc3ccccc13)CC2)C1CCN(c2ccncc2)CC1` [Example H-83, N-[(1R)-6-[Methyl-(1-pyridin-4-yl-piperidin-4-yl)-carbamoyl]-2,3-dihydro-1H-inden-1-yl]-isoquinoline-4-carboxylic acid amide], the figures for the inhibition at 10 µM in assay [1] (setting [3]) and in assay [2] (setting [4]) were 100% and 111%, respectively.

For the molecule `CN(C(=O)c1ccc2c(c1)[C@H](NC(=O)c1ccccc1C(F)(F)F)CC2)C1CCN(c2ccncc2)CC1` [Example H-30, (3R)-N-Methyl-N-(1-pyridin-4-yl-piperidin-4-yl)-3-[[2-(trifluoromethyl)-benzoyl]amino]-2,3-dihydro-1H-indene-5-carboxylic acid amide], the inhibition at 10 µM in assay [1] (setting [3]) was determined as 100%; in assay [2] (setting [4]), 99%.

In the case of `CN(C(=O)c1cc(F)c2c(c1)[C@H](NC(=O)c1ccccc1Cl)CCO2)C1CCN(c2ccncc2)CC1` [Example H-80, (4R)-4-[(2-Chloro-benzoyl)amino]-8-fluoro-N-methyl-N-(1-pyridin-4-yl-piperidin-4-yl)-3,4-dihydro-2H-chromene-6-carboxylic acid amide], the inhibition at 10 µM stood at 100% in assay [1] (setting [3]) and 110% in assay [2] (setting [4]).

As to `CN(C(=O)c1ccc2c(c1)[C@H](NC(=O)c1ccccc1Cl)CC2)C1CCN(CC(=O)N2CCCC2)CC1` [Example H-140, (3R)-3-[(2-Chloro-benzoyl)amino]-N-methyl-N-[1-(2-oxo-2-pyrrolidin-1-yl-ethyl)-piperidin-4-yl]-2,3-dihydro-1H-indene-5-carboxylic acid amide], the values for the inhibition at 10 µM in assay [1] (setting [3]) and in assay [2] (setting [4]) were 47% and 49%, respectively.

As for `O=C(NCCC1CCN(c2ccncc2)CC1)c1ccc2c(c1)C(NC(=O)c1ccccc1Cl)CC2` (stereo not shown) [Example H-01, 3-[(2-Chloro-benzoyl)amino]-N-[2-(1-pyridin-4-yl-piperidin-4-yl)-ethyl]-2,3-dihydro-1H-indene-5-carboxylic acid amide], the figures for the inhibition at 10 µM in assay [1] (setting [3]) and in assay [2] (setting [4]) were 100% and 102%, respectively.

Regarding `CN(C(=O)c1ccc2c(c1)[C@H](NC(=O)c1ccc(F)cc1)CC2)C1CCN(c2ccncc2)CC1` [Example H-75, (3R)-3-[(4-Fluoro-benzoyl)amino]-N-methyl-N-(1-pyridin-4-yl-piperidin-4-yl)-2,3-dihydro-1H-indene-5-carboxylic acid amide], the inhibition at 10 µM amounted to 100% in assay [1] (setting [3]) and 105% in assay [2] (setting [4]).

With `COc1nc(C)cc(N2CCC(N(C)C(=O)c3ccc4c(c3)[C@H](NC(=O)c3ccccc3Cl)CC4)CC2)n1` [Example H-126, (3R)-3-[(2-Chloro-benzoyl)amino]-N-[1-(2-methoxy-6-methyl-pyrimidin-4-yl)-piperidin-4-yl]-N-methyl-2,3-dihydro-1H-indene-5-carboxylic acid amide], the inhibition at 10 µM in assay [1] (setting [3]) was 100%; in assay [2] (setting [4]), 104%.

As for `Cc1cc(N2CCC(N(C)C(=O)c3ccc4c(c3)[C@H](N3Cc5cccc(Cl)c5C3=O)CC4)CC2)nc(C)n1` [Example H-130, (3R)-3-(4-Chloro-3-oxo-1,2-dihydro-isoindol-2-yl)-N-[1-(2,6-dimethyl-pyrimidin-4-yl)-piperidin-4-yl]-N-methyl-2,3-dihydro-1H-indene-5-carboxylic acid amide], the results for the inhibition at 10 µM in assay [1] (setting [3]) and in assay [2] (setting [4]) were 99% and 101%, respectively.

For `CN(C(=O)NC1CC(C)(C)c2ccc(C(=O)N(C)C3CCN(c4ccncc4)CC3)cc21)c1ccccc1Cl` (stereo not shown) [CC_H-15, 3-[[(2-Chlorophenyl)-methyl-carbamoyl]amino]-N,1,1-trimethyl-N-(1-pyridin-4-yl-piperidin-4-yl)-2,3-dihydro-indene-5-carboxylic acid amide], the inhibition at 10 µM in assay [1] (setting [5]) stood at 99%; in assay [2] (setting [6]), 101%.

With `Cc1cc(N2CC(N(C)C(=O)c3ccc4c(c3)[C@H](NC(=O)c3ccccc3Cl)CC4)C2)ccn1` [Example H-160, (3R)-3-[(2-Chloro-benzoyl)amino]-N-methyl-N-[1-(2-methyl-pyridin-4-yl)-azetidin-3-yl]-2,3-dihydro-1H-indene-5-carboxylic acid amide], the inhibition at 10 µM in assay [1] (setting [3]) was found to be 100%; in assay [2] (setting [4]) it was 109%.

Take `CN(C(=O)c1ccc2c(c1)[C@H](NC(=O)c1cccc(F)c1Cl)CC2)C1CCN(c2ccncn2)CC1` [Example H-164, (3R)-3-[(2-Chloro-3-fluoro-benzoyl)amino]-N-methyl-N-(1-pyrimidin-4-yl-piperidin-4-yl)-2,3-dihydro-1H-indene-5-carboxylic acid amide]: the inhibition at 10 µM came out at 100% in assay [1] (setting [3]) and 105% in assay [2] (setting [4]).

In the case of `Cc1cc(N2CCC(N(C)C(=O)c3cc(F)c4c(c3)[C@H](NC(=O)c3ccccc3Cl)CCO4)CC2)nc(C)n1` [Example H-81, (4R)-4-[(2-Chloro-benzoyl)amino]-N-[1-(2,6-dimethyl-pyrimidin-4-yl)-piperidin-4-yl]-8-fluoro-N-methyl-3,4-dihydro-2H-chromene-6-carboxylic acid amide], the inhibition at 10 µM was 95% in assay [1] (setting [3]) and 109% in assay [2] (setting [4]).

As for `O=C(NCCC1CCN(c2ccncc2)CC1)c1ccc2c(c1)C(NC(=O)c1cnccc1C(F)(F)F)CC2` (stereo not shown) [CC_H-37, N-[6-[2-(1-Pyridin-4-yl-piperidin-4-yl)-ethyl-carbamoyl]-2,3-dihydro-1H-inden-1-yl]-4-(trifluoromethyl)-pyridine-3-carboxylic acid amide], the inhibition at 10 µM in assay [1] (setting [5]) is 93%; in assay [2] (setting [6]) it was 104%.

Take `CN(C(=O)c1ccc2c(c1)C(NS(=O)(=O)c1c(Cl)cccc1C(F)(F)F)CCO2)C1CCN(c2ccncc2)CC1` (stereo not shown) [CC_H-47, 4-[[[2-Chloro-6-(trifluoromethyl)-phenyl]sulfonyl]amino]-N-methyl-N-(1-pyridin-4-yl-piperidin-4-yl)-3,4-dihydro-2H-chromene-6-carboxylic acid amide]: the inhibition at 10 µM in assay [1] (setting [5]) was 99%; in assay [2] (setting [6]), 104%.

For `CN(C(=O)c1ccc2c(c1)[C@H](NC(=O)c1ccccc1Cl)CC2)C1CCN(c2ccnc(N3CCCC3)c2)CC1` [Example H-124, (3R)-3-[(2-Chloro-benzoyl)amino]-N-methyl-N-[1-(2-pyrrolidin-1-yl-pyridin-4-yl)-piperidin-4-yl]-2,3-dihydro-1H-indene-5-carboxylic acid amide], the inhibition at 10 µM in assay [1] (setting [3]) was found to be 100%; in assay [2] (setting [4]), 108%.

For `CN(C(=O)c1ccc2c(c1)[C@H](NC(=O)c1ccccc1Cl)CC2)C1CN(c2ccncc2)C1` [Example H-146, (3R)-3-[(2-Chloro-benzoyl)amino]-N-methyl-N-(1-pyridin-4-yl-azetidin-3-yl)-2,3-dihydro-1H-indene-5-carboxylic acid amide], the inhibition at 10 µM in assay [1] (setting [3]) is -1%; in assay [2] (setting [4]), 107%.

Take `CN(C(=O)c1ccc2c(c1)[C@H](NC(=O)c1ccccc1Cl)CC2)C1CCC(c2ccncc2)CC1` (stereo partly drawn) [Example H-61, (3R)-3-[(2-Chloro-benzoyl)amino]-N-methyl-N-(4-pyridin-4-yl-cyclohexyl)-2,3-dihydro-1H-indene-5-carboxylic acid amide]: the inhibition at 10 µM in assay [1] (setting [3]) stood at 32%; in assay [2] (setting [4]), 77%.
